Reference: US6780994B2, “Phthalimido arylpiperazines useful in the treatment of benign prostatic hyperplasia” (Ortho-McNeil Pharmaceutical, Inc., priority 1998, dated 2004)

Legend:
α1a-AR = biological target: T1, α1a-AR (Homo sapiens, UniProt P35348); test: radioligand ([125I]-HEAT) receptor binding assay, COS cell membranes expressing cloned receptor; settings: [125I]-HEAT 50 pM, 1 hour room temperature
T1 construct: expressed in transfected cells; host or cells: COS cells, pcDNA3 vector, transient DEAE-dextran transfection
T1 sequence (P35348 1-466): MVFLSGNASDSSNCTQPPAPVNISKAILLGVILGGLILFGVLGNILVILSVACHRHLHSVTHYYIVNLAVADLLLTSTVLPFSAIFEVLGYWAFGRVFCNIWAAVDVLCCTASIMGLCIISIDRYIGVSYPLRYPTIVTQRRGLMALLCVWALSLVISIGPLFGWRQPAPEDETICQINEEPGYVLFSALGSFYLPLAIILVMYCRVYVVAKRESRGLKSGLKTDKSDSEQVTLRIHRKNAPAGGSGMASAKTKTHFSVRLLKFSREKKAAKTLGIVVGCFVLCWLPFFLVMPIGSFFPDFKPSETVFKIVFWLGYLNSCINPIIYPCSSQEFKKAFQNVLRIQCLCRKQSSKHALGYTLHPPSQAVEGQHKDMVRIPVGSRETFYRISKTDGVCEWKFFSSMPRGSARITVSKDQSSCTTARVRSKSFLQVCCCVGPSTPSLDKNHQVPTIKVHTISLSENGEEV
Description: The first assay tested the ability of compounds of Formula I to bind to membrane bound receptors α1a-AR, α1b-AR and α1d-AR.
The DNA sequences of the three cloned human α1-AR subtypes have been published. […] We used published DNA sequence information to design primers for use in RT-PCR amplification of each subtype to obtain cloned cDNAs. Human poly A+ RNA was obtained from commercially available sources and included hippocampus and prostate samples, sources which have been cited in the literature. For the primary screen a radioligand binding assay was used which employed membrane preparations from cells expressing the individual cloned receptor cDNAs. […] Each α1 receptor subtype was cloned from poly A+ RNA by the standard method of reverse transcription-polymerase chain reaction (RT-PCR). The following sources of polyA+ RNA were used for the cloning of the α1 receptor subtypes: α1a-AR, human hippocampus and prostate, α1b-AR, human hippocampus, α1d-AR, human hippocampus. The resulting cDNAs were cloned into the pcDNA3 mammalian expression vector (Invitrogen Corp., San Diego Calif.). Each DNA was sequenced for verification and to detect any possible mutations introduced during the amplification process. Any deviation in sequence from the published consensus for each receptor subtype was corrected by site-directed mutagenesis.
The three α1-AR subtypes (a, b, d) were transfected into COS cells using a standard DEAE-dextran procedure with a chloroquine shock. […] Approximately 72 hours post-transfection, the cells were harvested and COS membranes were prepared. Transfected COS cells from 25 plates (100 mm) were scraped and suspended in 15 mL of TE buffer (50 mM Tris-HCl, 5 mM EDTA, pH 7.4). The suspension was disrupted with a homogenizer. It was then centrifuged at 1000× g for 10 minutes at 4° C. […] The pellet was resuspended in 5 mL TNE buffer (50 mM Tris-HCl, 5 mM EDTA, 150 mM NaCl, pH 7.4). The resulting membrane preparation was aliquoted and stored at −70° C. The protein concentration was determined following membrane solubilization with TritonX-100.
The ability of each compound to bind to each of the α1-AR subtypes was assessed in a receptor binding assay. […] The plate was incubated for 1 hour at room temperature and the reaction mixtures were filtered through a Packard GF/C Unifilter filter plate. The filter plate was dried for 1 hour in a vacuum oven. Scintillation fluid ([…]) was added to each well, and the filter plate was counted in a Packard Topcount scintillation counter. Data was analyzed using GraphPad Prism software.

rat aorta tissues = test: norepinephrine-induced contractile response of rat aortic rings; type: cell-based; settings: norepinephrine-induced contraction, Long Evans rat aortic rings, 2 grams tension, 37° C.; read-out: IC50 of inhibition of contractile response in aortic tissue
Description: (§1) The contractile responses of rat prostatic tissue and rat aorta tissues were examined in the presence and absence of antagonist compounds. As an indication of the selectivity of antagonism, test compound effects on vascular smooth muscle contractility (α1b-AR and α1d-AR) were compared to the effects on prostatic smooth muscle (α1a-AR). Strips of prostatic tissue and aortic rings were obtained from Long Evans derived male rats weighing 275 grams and sacrificed by cervical dislocation. The prostate tissue was placed under 1 gram tension in a 10 ml bath containing phosphate buffered saline pH 7.4 at 32° C. and isometric tension was measured with force transducers. The aortic tissue was placed under 2 grams tension in a 10 ml bath containing phosphate buffered saline pH 7.4 at 37° C.

rat prostatic tissue = test: norepinephrine-induced contractile response of rat prostatic tissue strips; type: cell-based; settings: norepinephrine-induced contraction, Long Evans rat prostatic strips, 1 gram tension, 32° C.; read-out: IC50 of inhibition of contractile response in prostate tissue
Description: as §1

IC50 (α1a-AR)	IC50 (rat aorta tissues)	IC50 (rat prostatic tissue)	SMILES
0.18 nM	–	–	CC(C)Oc1ccccc1N1CCN(CCCNC(=O)c2ccc3c(c2)C(=O)N(c2ccc(N(C)C)cc2)C3=O)CC1 [Compound 44]
1.6 nM	–	–	COc1ccccc1N1C(=O)c2ccc(C(=O)NCC(O)CN3CCN(c4ccccc4OC(C)C)CC3)cc2C1=O (centres unmarked) [Compound 26]
1.9 nM	–	–	CC(C)Oc1ccccc1N1CCN(CC(O)CNC(=O)c2ccc3c(c2)C(=O)N(c2cccnc2)C3=O)CC1 (centres unmarked) [Compound 11]
0.44 nM	–	–	Cc1ccc(N2C(=O)c3ccc(C(=O)NCC(O)CN4CCN(c5ccccc5OC(C)C)CC4)cc3C2=O)cc1C (centres unmarked) [Compound 39]
1.5 nM	63200 nM	640 nM	CC(C)Oc1ccccc1N1CCN(CC(O)CNC(=O)c2ccc3c(c2)C(=O)N(c2cccc(F)c2)C3=O)CC1 (racemic) [Compound 4]
0.89 nM	–	–	CC(C)Oc1ccccc1N1CCN(CC(O)CNC(=O)c2ccc3c(c2)C(=O)N(c2cc(F)cc(F)c2)C3=O)CC1 (centres unmarked) [Compound 29]
0.36 nM	22400 nM	810 nM	CC(C)Oc1ccccc1N1CCN(C[C@@H](O)CNC(=O)c2ccc3c(c2)C(=O)N(c2ccc(N(C)C)cc2)C3=O)CC1 [Compound 21, (S)-2-[4-(dimethylamino)phenyl]-2,3-dihydro-N-[2-hydroxy-3-[4-[2-(1-methylethoxy)phenyl]-1-piperazinyl]propyl]-1,3-dioxo-1H-isoindole-5-carboxamide]
0.66 nM	–	–	Cc1ccc(N2C(=O)c3ccc(C(=O)NCC(O)CN4CCN(c5ccccc5OC(C)C)CC4)cc3C2=O)cc1 (centres unmarked) [Compound 52]
0.9 nM	–	–	CC(C)Oc1ccccc1N1CCN(CC(O)CNC(=O)c2ccc3c(c2)C(=O)N(c2ccccc2)C3=O)CC1 (centres unmarked) [Compound 51]
0.8 nM	–	–	CC(C)Oc1ccccc1N1CCN(CC(O)CNC(=O)c2ccc3c(c2)C(=O)N(c2ccc(N(C)C)cc2)C3=O)CC1 (centres unmarked) [Compound 28]
0.95 nM	–	–	CC(C)Oc1ccccc1N1CCN(CC(O)CNC(=O)c2ccc3c(c2)C(=O)N(c2ccc(Cl)cc2)C3=O)CC1 (centres unmarked) [Compound 53]
0.2 nM	–	–	CC(C)Oc1ccccc1N1CCN(CCCNC(=O)c2ccc3c(c2)C(=O)N(c2ccc(O)cc2)C3=O)CC1 [Compound 47]
0.46 nM	–	–	CC(C)Oc1ccccc1N1CCN(CC(O)CNC(=O)c2ccc3c(c2)C(=O)N(c2ccc(O)cc2)C3=O)CC1 (single isomer, unassigned) [Compound 35]
1.8 nM	–	–	CC(C)Oc1ccccc1N1CCN(CC(O)CNC(=O)c2ccc3c(c2)C(=O)N(c2ccc([N+](=O)[O-])cc2)C3=O)CC1 (centres unmarked) [Compound 30]
0.1 nM	–	–	Cc1ccc(N2C(=O)c3ccc(C(=O)NCCCN4CCN(c5ccccc5OC(C)C)CC4)cc3C2=O)cc1 [Compound 46]
0.11 nM	3300 nM	40 nM	COc1ccc(N2C(=O)c3ccc(C(=O)NCCCN4CCN(c5ccccc5OC(C)C)CC4)cc3C2=O)cc1 [Compound 45]

IC50 (α1a-AR)	IC50 (rat aorta tissues)	IC50 (rat prostatic tissue)	SMILES
1 nM	6500 nM	230 nM	CC(C)Oc1ccccc1N1CCN(C[C@@H](O)CNC(=O)c2ccc3c(c2)C(=O)N(c2cccc(F)c2)C3=O)CC1 [Compound 9]
4.25 nM	–	–	CCOc1ccccc1N1CCN(CC(O)CNC(=O)c2ccc3c(c2)C(=O)N(c2cccc(F)c2)C3=O)CC1 (centres unmarked) [Compound 42]
0.93 nM	–	–	COc1ccc(N2C(=O)c3ccc(C(=O)NCC(O)CN4CCN(c5ccccc5OC(C)C)CC4)cc3C2=O)cc1OC (centres unmarked) [Compound 38]
8 nM	–	–	CC(C)Oc1ccccc1N1CCN(C[C@H](O)CNC(=O)c2ccc3c(c2)C(=O)N(c2cccc(F)c2)C3=O)CC1 [Compound 27]
3.5 nM	–	–	CC(C)Oc1ccccc1N1CCN(CC(O)CNC(=O)c2ccc3c(c2)C(=O)N(c2ccc(C(C)(C)C)cc2)C3=O)CC1 (centres unmarked) [Compound 41]
0.73 nM	–	–	CC(C)Oc1ccccc1N1CCN(CC(O)CNC(=O)c2ccc3c(c2)C(=O)N(c2cccc(Cl)c2)C3=O)CC1 (centres unmarked) [Compound 54]
0.74 nM	–	–	CC(C)Oc1ccccc1N1CCN(CC(O)CNC(=O)c2ccc3c(c2)C(=O)N(c2cccc(C(F)(F)F)c2)C3=O)CC1 (centres unmarked) [Compound 57]
0.9 nM	–	–	Cc1cccc(N2C(=O)c3ccc(C(=O)NCC(O)CN4CCN(c5ccccc5OC(C)C)CC4)cc3C2=O)c1 (centres unmarked) [Compound 49]
22 nM	–	–	COc1ccccc1N1CCN(CC(O)CNC(=O)c2ccc3c(c2)C(=O)N(c2cccc(F)c2)C3=O)CC1 (centres unmarked) [Compound 43]
0.41 nM	2800 nM	130 nM	CC(C)Oc1ccccc1N1CCN(CCCNC(=O)c2ccc3c(c2)C(=O)N(c2cccc(F)c2)C3=O)CC1 [Compound 6]
0.81 nM	–	–	CC(C)Oc1ccccc1N1CCN(CC(O)CNC(=O)c2ccc3c(c2)C(=O)N(c2ccc(Cl)c(Cl)c2)C3=O)CC1 (centres unmarked) [Compound 56]
1.5 nM	–	–	CC(C)Oc1ccccc1N1CCN(CC(O)CNC(=O)c2ccc3c(c2)C(=O)N(c2ccc(F)cc2)C3=O)CC1 (centres unmarked) [Compound 50]
7 nM	–	–	COC(CNC(=O)c1ccc2c(c1)C(=O)N(c1cccc(F)c1)C2=O)CN1CCN(c2ccccc2OC(C)C)CC1 (centres unmarked) [Compound 14]
1 nM	–	–	CC(=O)c1ccc(N2C(=O)c3ccc(C(=O)NCC(O)CN4CCN(c5ccccc5OC(C)C)CC4)cc3C2=O)cc1 (centres unmarked) [Compound 48]
0.88 nM	–	–	CC(C)Oc1ccccc1N1CCN(CC(O)CNC(=O)c2ccc3c(c2)C(=O)N(c2ccc(O)cc2)C3=O)CC1 (centres unmarked) [Compound 58]
